Data taken from PubChem BioAssay (NCI).
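A five-concentration, 48-hour dose response in 96-well plates underlies each endpoint, interpolated linearly between surrounding concentrations. Abbreviation: GI50, concentration required for 50% inhibition of growth. TGI marks complete inhibition of growth.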

Key:
Assay in all cases: NCI tumour cell line growth inhibition, 48 h
786-0 renal = tested on: 786-0 renal
A549 NSCLC = tested on: A549 NSCLC
ACHN renal = tested on: ACHN renal
BT-549 breast = tested on: BT-549 breast
CAKI-1 renal = tested on: CAKI-1 renal
CCRF-CEM leukemia = tested on: CCRF-CEM leukemia
COLO 205 colon = tested on: COLO 205 colon
DU-145 prostate = tested on: DU-145 prostate
EKVX NSCLC = tested on: EKVX NSCLC
HCC-2998 colon = tested on: HCC-2998 colon
HCT-116 colon = tested on: HCT-116 colon
HCT-15 colon = tested on: HCT-15 colon
HL-60(TB) leukemia = tested on: HL-60(TB) leukemia
HOP-62 NSCLC = tested on: HOP-62 NSCLC
HOP-92 NSCLC = tested on: HOP-92 NSCLC
HS 578T breast = tested on: HS 578T breast
HT29 colon = tested on: HT29 colon
IGROV1 ovarian = tested on: IGROV1 ovarian
K-562 leukemia = tested on: K-562 leukemia
KM12 colon = tested on: KM12 colon
LOX IMVI melanoma = tested on: LOX IMVI melanoma
MALME-3M melanoma = tested on: MALME-3M melanoma
MCF7 breast = tested on: MCF7 breast
MDA-MB-435 = tested on: MDA-MB-435
MOLT-4 leukemia = tested on: MOLT-4 leukemia
NCI-H23 lung = tested on: NCI-H23 lung
NCI-H460 lung = tested on: NCI-H460 lung
NCI-H522 lung = tested on: NCI-H522 lung
NCI/ADR-RES ovarian = tested on: NCI/ADR-RES ovarian
OVCAR-3 ovarian = tested on: OVCAR-3 ovarian
OVCAR-4 ovarian = tested on: OVCAR-4 ovarian
OVCAR-5 ovarian = tested on: OVCAR-5 ovarian
OVCAR-8 ovarian = tested on: OVCAR-8 ovarian
PC-3 prostate = tested on: PC-3 prostate
RPMI-8226 leukemia = tested on: RPMI-8226 leukemia
RXF 393 renal = tested on: RXF 393 renal
SF-268 CNS = tested on: SF-268 CNS
SF-295 CNS = tested on: SF-295 CNS
SF-539 CNS = tested on: SF-539 CNS
SK-MEL-2 melanoma = tested on: SK-MEL-2 melanoma
SK-MEL-28 melanoma = tested on: SK-MEL-28 melanoma
SK-MEL-5 melanoma = tested on: SK-MEL-5 melanoma
SK-OV-3 ovarian = tested on: SK-OV-3 ovarian
SNB-19 CNS = tested on: SNB-19 CNS
SNB-75 CNS = tested on: SNB-75 CNS
SW-620 colon = tested on: SW-620 colon
T-47D breast = tested on: T-47D breast
TK-10 renal = tested on: TK-10 renal
U251 CNS = tested on: U251 CNS
UACC-257 melanoma = tested on: UACC-257 melanoma
UO-31 renal = tested on: UO-31 renal
A498 renal = tested on: A498 renal
M14 melanoma = tested on: M14 melanoma
NCI-H226 lung = tested on: NCI-H226 lung
UACC-62 melanoma = tested on: UACC-62 melanoma

N#Cc1c(-c2ccccc2)n([O-])c2ccccc2[n+]1=O
GI50 (786-0 renal): 35.7 µM | TGI (786-0 renal): > 100 µM | GI50 (A549 NSCLC): 22 µM | TGI (A549 NSCLC): 50.9 µM | GI50 (ACHN renal): 19.9 µM | TGI (ACHN renal): 37.5 µM | GI50 (BT-549 breast): 25.1 µM | TGI (BT-549 breast): 57.3 µM | GI50 (CAKI-1 renal): 20.1 µM | TGI (CAKI-1 renal): 34.7 µM | GI50 (CCRF-CEM leukemia): 22.2 µM | TGI (CCRF-CEM leukemia): 46.1 µM | GI50 (COLO 205 colon): 35.5 µM | TGI (COLO 205 colon): > 100 µM | GI50 (DU-145 prostate): 22.4 µM | TGI (DU-145 prostate): 51.2 µM | GI50 (EKVX NSCLC): 28.2 µM | TGI (EKVX NSCLC): 58 µM | GI50 (HCC-2998 colon): 17 µM | TGI (HCC-2998 colon): 34 µM | GI50 (HCT-116 colon): 19.5 µM | TGI (HCT-116 colon): 34.8 µM | GI50 (HCT-15 colon): 21.4 µM | TGI (HCT-15 colon): 48.3 µM | GI50 (HL-60(TB) leukemia): 25.2 µM | TGI (HL-60(TB) leukemia): 47.9 µM | GI50 (HOP-62 NSCLC): 20.2 µM | TGI (HOP-62 NSCLC): 38.7 µM | GI50 (HOP-92 NSCLC): 21.8 µM | TGI (HOP-92 NSCLC): 45.4 µM | GI50 (HS 578T breast): 26.8 µM | TGI (HS 578T breast): 70 µM | GI50 (HT29 colon): 38.8 µM | TGI (HT29 colon): > 100 µM | GI50 (IGROV1 ovarian): 36.9 µM | TGI (IGROV1 ovarian): > 100 µM | GI50 (K-562 leukemia): 20.6 µM | TGI (K-562 leukemia): 37.1 µM | GI50 (KM12 colon): 16.2 µM | TGI (KM12 colon): 32.2 µM | GI50 (LOX IMVI melanoma): 18.7 µM | TGI (LOX IMVI melanoma): 35.1 µM | GI50 (MALME-3M melanoma): 21.3 µM | TGI (MALME-3M melanoma): 37.1 µM | GI50 (MCF7 breast): 33.2 µM | TGI (MCF7 breast): > 100 µM | GI50 (MDA-MB-435): 19.7 µM | TGI (MDA-MB-435): 36.3 µM | GI50 (MOLT-4 leukemia): 10.2 µM | TGI (MOLT-4 leukemia): 27.2 µM | GI50 (NCI-H23 lung): 20.3 µM | TGI (NCI-H23 lung): 40.3 µM | GI50 (NCI-H460 lung): 20.7 µM | TGI (NCI-H460 lung): 45.9 µM | GI50 (NCI-H522 lung): 26.9 µM | TGI (NCI-H522 lung): 75.1 µM | GI50 (NCI/ADR-RES ovarian): 21.1 µM | TGI (NCI/ADR-RES ovarian): 44.8 µM | GI50 (OVCAR-3 ovarian): 22.3 µM | TGI (OVCAR-3 ovarian): 42.9 µM | GI50 (OVCAR-4 ovarian): 28.8 µM | TGI (OVCAR-4 ovarian): 81.8 µM | GI50 (OVCAR-5 ovarian): 28.1 µM | TGI (OVCAR-5 ovarian): 74.2 µM | GI50 (OVCAR-8 ovarian): 32.5 µM | TGI (OVCAR-8 ovarian): 91.3 µM | GI50 (PC-3 prostate): 26.4 µM | TGI (PC-3 prostate): 79.8 µM | GI50 (RPMI-8226 leukemia): 21.1 µM | TGI (RPMI-8226 leukemia): 42.2 µM | GI50 (RXF 393 renal): 42.8 µM | TGI (RXF 393 renal): > 100 µM | GI50 (SF-268 CNS): 24.8 µM | TGI (SF-268 CNS): 63.9 µM | GI50 (SF-295 CNS): 24.4 µM | TGI (SF-295 CNS): 56.4 µM | GI50 (SF-539 CNS): 32.1 µM | TGI (SF-539 CNS): 60.8 µM | GI50 (SK-MEL-2 melanoma): 62.6 µM | TGI (SK-MEL-2 melanoma): > 100 µM | GI50 (SK-MEL-28 melanoma): 65.7 µM | TGI (SK-MEL-28 melanoma): > 100 µM | GI50 (SK-MEL-5 melanoma): 20.1 µM | TGI (SK-MEL-5 melanoma): 38.5 µM | GI50 (SK-OV-3 ovarian): 51.7 µM | TGI (SK-OV-3 ovarian): > 100 µM | GI50 (SNB-19 CNS): 67.1 µM | TGI (SNB-19 CNS): > 100 µM | GI50 (SNB-75 CNS): 41.1 µM | TGI (SNB-75 CNS): > 100 µM | GI50 (SW-620 colon): 35.3 µM | TGI (SW-620 colon): > 100 µM | GI50 (T-47D breast): 30.1 µM | TGI (T-47D breast): 83.7 µM | GI50 (TK-10 renal): 29.4 µM | TGI (TK-10 renal): 68.4 µM | GI50 (U251 CNS): 24.7 µM | TGI (U251 CNS): 60.7 µM | GI50 (UACC-257 melanoma): 21.4 µM | TGI (UACC-257 melanoma): 40.1 µM | GI50 (UO-31 renal): 33.9 µM | TGI (UO-31 renal): > 100 µM

O=C(CSCC(=O)N/N=C/c1cccc(C(F)(F)F)c1)N/N=C/c1cccc(C(F)(F)F)c1
TGI (A498 renal): > 100 µM | TGI (ACHN renal): > 100 µM | TGI (BT-549 breast): > 100 µM | TGI (CAKI-1 renal): > 100 µM | TGI (DU-145 prostate): > 100 µM | TGI (EKVX NSCLC): > 100 µM | TGI (HCC-2998 colon): > 100 µM | TGI (HCT-15 colon): > 100 µM | TGI (HL-60(TB) leukemia): > 100 µM | TGI (HOP-62 NSCLC): > 100 µM | TGI (HOP-92 NSCLC): > 100 µM | TGI (HS 578T breast): > 100 µM | TGI (HT29 colon): > 100 µM | TGI (IGROV1 ovarian): > 100 µM | TGI (K-562 leukemia): > 100 µM | TGI (LOX IMVI melanoma): > 100 µM | TGI (M14 melanoma): > 100 µM | TGI (MALME-3M melanoma): > 100 µM | TGI (MCF7 breast): > 100 µM | TGI (MDA-MB-435): > 100 µM | TGI (NCI-H226 lung): > 100 µM | TGI (NCI-H23 lung): > 100 µM | TGI (NCI-H522 lung): > 100 µM | TGI (NCI/ADR-RES ovarian): > 100 µM | TGI (OVCAR-5 ovarian): > 100 µM | TGI (PC-3 prostate): > 100 µM | TGI (RXF 393 renal): > 100 µM | TGI (SF-268 CNS): > 100 µM | TGI (SF-295 CNS): > 100 µM | TGI (SF-539 CNS): > 100 µM | TGI (SK-MEL-2 melanoma): > 100 µM | TGI (SK-MEL-28 melanoma): > 100 µM | TGI (SK-MEL-5 melanoma): > 100 µM | TGI (SK-OV-3 ovarian): > 100 µM | TGI (SNB-19 CNS): > 100 µM | TGI (SNB-75 CNS): > 100 µM | TGI (T-47D breast): > 100 µM | TGI (TK-10 renal): > 100 µM | TGI (UACC-257 melanoma): > 100 µM | TGI (UACC-62 melanoma): > 100 µM | TGI (UO-31 renal): > 100 µM
